According to ChEMBL document CHEMBL3885861, “Open TG-GATES”:

Species on record: Rattus norvegicus
Experiment: Open TG-GATES - Regimen: Single
Type: toxicity, organism-based, Sprague-Dawley
Parameters: regimen Single, gender Male, age 6 weeks
Conditions: in vivo, po, route gavage; for APTT / Bas / Eos / Fbg / Hb / Ht / Lym / MCH / MCHC / MCV / Mono / Neu / PT / Plat / RBC / WBC: tissue Blood; for KIDNEY_L / KIDNEY_R / KIDNEY_TOTAL: tissue Kidney; for LIVER: tissue Liver; for ALT / AST / CRE / Cl / DBIL / GLC / IP / LDH / Na / RALB / TBIL / TC / TG / TP / gamma-GTP / BUN: tissue Plasma
[1] = 0 mg/kg, 3 h, dose level Control
[2] = 0 mg/kg, 6 h, dose level Control
[3] = 0 mg/kg, 9 h, dose level Control
[4] = 0 mg/kg, 24 h, dose level Control
[5] = 20 mg/kg, 3 h, dose level Middle

## CC/C(=C(\c1ccccc1)c1ccc(OCCN(C)C)cc1)c1ccccc1 [TAMOXIFEN]
[1]
  TERMINAL_BW: 194.3 g
  APTT: 16.9 s
  Bas: 0%
  Eos: 0.8%
  Fbg: 248.6 mg/dL
  Hb: 13 g/dL
  Ht: 39.1%
  Lym: 76%
  MCH: 21.6 pg
  MCHC: 33.2%
  MCV: 65.1 fL
  Mono: 3.6%
  Neu: 19.2%
  PT: 12.2 s
  Plat: 123.1 x10_4/uL
  RBC: 601.8 x10_4/ul
  WBC: 87.4 x10_2/uL
  KIDNEY_L: 0.9 g
  KIDNEY_R: 0.8 g
  KIDNEY_TOTAL: 1.7 g
  LIVER: 8.3 g
  ALT: 47.6 IU/L
  AST: 77.6 IU/L
  CRE: 0.2 mg/dL
  Cl: 106.8 meq/L
  DBIL: 0.02 mg/dL
  GLC: 173.6 mg/dL
  IP: 10.2 mg/dL
  LDH: 69.6 IU/L
  Na: 140.8 meq/L
  RALB: 2.6 g/dL
  TBIL: 0.042 mg/dL
  TC: 86.4 mg/dL
  TG: 94.6 mg/dL
  TP: 5.6 g/dL
  gamma-GTP: 1.4 IU/L
[2]
  TERMINAL_BW: 192.7 g
  APTT: 16.1 s
  Bas: 0%
  Eos: 1%
  Fbg: 261.5 mg/dL
  Hb: 13.2 g/dL
  Ht: 39.6%
  Lym: 69.8%
  MCH: 21.8 pg
  MCHC: 33.4%
  MCV: 65.3 fL
  Mono: 3.2%
  Neu: 25.8%
  PT: 12.1 s
  Plat: 118.7 x10_4/uL
  RBC: 607 x10_4/ul
  WBC: 64.1 x10_2/uL
  KIDNEY_L: 0.8 g
  KIDNEY_R: 0.8 g
  KIDNEY_TOTAL: 1.7 g
  LIVER: 7.8 g
  ALT: 37.8 IU/L
  AST: 73 IU/L
  BUN: 9.8 mg/dL
  CRE: 0.2 mg/dL
  Cl: 110.2 meq/L
  DBIL: 0.015 mg/dL
  GLC: 171.2 mg/dL
  IP: 10 mg/dL
  LDH: 52.2 IU/L
  Na: 142.2 meq/L
  RALB: 2.6 g/dL
  TBIL: 0.0425 mg/dL
  TC: 86.5 mg/dL
  TG: 59 mg/dL
  TP: 5.4 g/dL
  gamma-GTP: 1 IU/L
[3]
  TERMINAL_BW: 194.3 g
  APTT: 16.5 s
  Bas: 0%
  Eos: 1%
  Fbg: 259.6 mg/dL
  Hb: 12.8 g/dL
  Ht: 38.4%
  Lym: 75.2%
  MCHC: 33.4%
  MCV: 64 fL
  Mono: 3%
  PT: 12.2 s
  Plat: 111.1 x10_4/uL
  RBC: 599.4 x10_4/ul
  WBC: 73.7 x10_2/uL
  KIDNEY_L: 0.8 g
  KIDNEY_R: 0.8 g
  KIDNEY_TOTAL: 1.6 g
  LIVER: 7.1 g
  ALT: 42.4 IU/L
  AST: 71.8 IU/L
  BUN: 10.2 mg/dL
  CRE: 0.2 mg/dL
  Cl: 107.2 meq/L
  DBIL: 0.012 mg/dL
  GLC: 184.6 mg/dL
  LDH: 50 IU/L
  Na: 142.8 meq/L
  RALB: 2.5 g/dL
  TBIL: 0.05 mg/dL
  TC: 84.6 mg/dL
  TG: 37.4 mg/dL
  TP: 5.3 g/dL
  gamma-GTP: 1.6 IU/L
[4]
  TERMINAL_BW: 200.5 g
  APTT: 15.5 s
  Bas: 0%
  Eos: 1%
  Fbg: 258.4 mg/dL
  Hb: 13 g/dL
  Ht: 38.9%
  Lym: 70.6%
  MCH: 21.5 pg
  MCHC: 33.5%
  MCV: 64.2 fL
  Mono: 4%
  Neu: 24%
  PT: 12.3 s
  Plat: 116.6 x10_4/uL
  RBC: 605.8 x10_4/ul
  WBC: 89.9 x10_2/uL
  KIDNEY_L: 0.9 g
  KIDNEY_R: 0.9 g
  KIDNEY_TOTAL: 1.8 g
  LIVER: 9.1 g
  ALT: 51.8 IU/L
  AST: 76.2 IU/L
  BUN: 14.6 mg/dL
  CRE: 0.2 mg/dL
  Cl: 107.2 meq/L
  DBIL: 0.012 mg/dL
  GLC: 183.8 mg/dL
  IP: 7.8 mg/dL
  LDH: 69 IU/L
  Na: 142.4 meq/L
  RALB: 2.6 g/dL
  TBIL: 0.034 mg/dL
  TC: 93.2 mg/dL
  TG: 83 mg/dL
  TP: 5.5 g/dL
  gamma-GTP: 1 IU/L
6 mg/kg, 3 h, dose level Low
  TERMINAL_BW: 191.8 g
  Bas: 0%
  Eos: 1%
  Fbg: 247 mg/dL
  Hb: 13.1 g/dL
  Ht: 39.6%
  Lym: 78.4%
  MCHC: 33.1%
  MCV: 64.6 fL
  Mono: 3.4%
  Neu: 16.6%
  PT: 12 s
  Plat: 122.7 x10_4/uL
  RBC: 612.6 x10_4/ul
  WBC: 83.4 x10_2/uL
  KIDNEY_L: 0.8 g
  KIDNEY_R: 0.9 g
  KIDNEY_TOTAL: 1.7 g
  LIVER: 8.4 g
  ALT: 50.6 IU/L
  AST: 81.2 IU/L
  BUN: 11.2 mg/dL
  CRE: 0.2 mg/dL
  Cl: 107.6 meq/L
  DBIL: 0.032 mg/dL
  GLC: 173.4 mg/dL
  IP: 8.9 mg/dL
  LDH: 58.2 IU/L
  Na: 140.4 meq/L
  RALB: 2.6 g/dL
  TBIL: 0.046 mg/dL
  TC: 80.8 mg/dL
  TG: 113.6 mg/dL
  TP: 5.6 g/dL
  gamma-GTP: 1 IU/L
6 mg/kg, 6 h, dose level Low
  TERMINAL_BW: 195.3 g
  Bas: 0%
  Eos: 1%
  Fbg: 258.6 mg/dL
  Hb: 13.1 g/dL
  Ht: 39.6%
  Lym: 77.4%
  MCH: 21.6 pg
  MCHC: 33.2%
  MCV: 65.1 fL
  Mono: 3.2%
  Neu: 18%
  PT: 12.1 s
  Plat: 120.4 x10_4/uL
  RBC: 608.2 x10_4/ul
  WBC: 67.4 x10_2/uL
  KIDNEY_L: 0.9 g
  KIDNEY_R: 0.9 g
  KIDNEY_TOTAL: 1.7 g
  LIVER: 8.2 g
  ALT: 41 IU/L
  AST: 77 IU/L
  BUN: 8.2 mg/dL
  CRE: 0.1 mg/dL
  Cl: 108.2 meq/L
  DBIL: 0.014 mg/dL
  GLC: 180.2 mg/dL
  IP: 10.9 mg/dL
  LDH: 93.6 IU/L
  Na: 141.6 meq/L
  RALB: 2.5 g/dL
  TBIL: 0.05 mg/dL
  TC: 81.4 mg/dL
  TG: 46.6 mg/dL
  TP: 5.4 g/dL
  gamma-GTP: 1.4 IU/L
6 mg/kg, 9 h, dose level Low
  TERMINAL_BW: 191.5 g
  APTT: 16 s
  Bas: 0%
  Eos: 1%
  Fbg: 248.8 mg/dL
  Hb: 12.8 g/dL
  Lym: 68.8%
  MCH: 21.5 pg
  MCHC: 33.5%
  MCV: 64.3 fL
  Mono: 2.6%
  Neu: 27.2%
  PT: 12.5 s
  Plat: 116.1 x10_4/uL
  RBC: 597.4 x10_4/ul
  WBC: 68.7 x10_2/uL
  KIDNEY_L: 0.8 g
  KIDNEY_R: 0.8 g
  KIDNEY_TOTAL: 1.6 g
  LIVER: 7.1 g
  ALT: 39 IU/L
  AST: 77.2 IU/L
  BUN: 9.6 mg/dL
  CRE: 0.2 mg/dL
  Cl: 108.2 meq/L
  DBIL: 0.01 mg/dL
  GLC: 186.6 mg/dL
  IP: 11 mg/dL
  LDH: 62.4 IU/L
  Na: 143.6 meq/L
  RALB: 2.5 g/dL
  TBIL: 0.046 mg/dL
  TC: 67.2 mg/dL
  TG: 33.4 mg/dL
  TP: 5.3 g/dL
  gamma-GTP: 1 IU/L
6 mg/kg, 24 h, dose level Low
  TERMINAL_BW: 194.3 g
  APTT: 17.4 s
  Bas: 0%
  Eos: 1.2%
  Fbg: 250.2 mg/dL
  Hb: 12.8 g/dL
  Ht: 38.6%
  Lym: 79%
  MCH: 20.9 pg
  MCHC: 33.2%
  MCV: 62.9 fL
  Mono: 3.2%
  Neu: 16.4%
  PT: 12.8 s
  Plat: 113.7 x10_4/uL
  RBC: 613.8 x10_4/ul
  WBC: 80.8 x10_2/uL
  KIDNEY_L: 0.9 g
  KIDNEY_R: 0.9 g
  KIDNEY_TOTAL: 1.7 g
  LIVER: 8.7 g
  ALT: 51 IU/L
  AST: 79.8 IU/L
  BUN: 12.8 mg/dL
  CRE: 0.2 mg/dL
  Cl: 108 meq/L
  DBIL: 0.012 mg/dL
  GLC: 184.4 mg/dL
  IP: 8 mg/dL
  LDH: 55.2 IU/L
  Na: 142.4 meq/L
  RALB: 2.5 g/dL
  TBIL: 0.036 mg/dL
  TC: 61.6 mg/dL
  TG: 64.2 mg/dL
  TP: 5.4 g/dL
  gamma-GTP: 1.4 IU/L
[5]
  TERMINAL_BW: 194.9 g
  APTT: 16.5 s
  Bas: 0.2%
